Measurements published in patent US9359367B2, “Tetrahydroquinazolinone derivatives as PARP inhibitors” (Lupin Limited, priority 2012, dated 2016).

Each molecule was assayed against T1, PARP1 (Homo sapiens, UniProt P09874) (assay: PARP1 Biochemical Assay (BPS Bioscience kit, chemiluminescence)). Conditions: histone-coated plate, biotinilated NAD+, 25° C. for 60 min, luminescence, read-out: PARP 1 inhibition IC50.
T1 construct: purchased BPS Bioscience
Summary of the method: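 Human PARP1 (25–75 ng/well) with activated DNA was incubated with compound on histone-coated wells. Biotinylated NAD+ was added and the reaction ran 60 min at 25 °C. Ribosylation was detected by streptavidin-HRP chemiluminescence, % inhibition was normalised to enzyme-free and uninhibited controls, and IC50 was fitted from % inhibition versus concentration.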

T1 sequence (P09874 whole entry): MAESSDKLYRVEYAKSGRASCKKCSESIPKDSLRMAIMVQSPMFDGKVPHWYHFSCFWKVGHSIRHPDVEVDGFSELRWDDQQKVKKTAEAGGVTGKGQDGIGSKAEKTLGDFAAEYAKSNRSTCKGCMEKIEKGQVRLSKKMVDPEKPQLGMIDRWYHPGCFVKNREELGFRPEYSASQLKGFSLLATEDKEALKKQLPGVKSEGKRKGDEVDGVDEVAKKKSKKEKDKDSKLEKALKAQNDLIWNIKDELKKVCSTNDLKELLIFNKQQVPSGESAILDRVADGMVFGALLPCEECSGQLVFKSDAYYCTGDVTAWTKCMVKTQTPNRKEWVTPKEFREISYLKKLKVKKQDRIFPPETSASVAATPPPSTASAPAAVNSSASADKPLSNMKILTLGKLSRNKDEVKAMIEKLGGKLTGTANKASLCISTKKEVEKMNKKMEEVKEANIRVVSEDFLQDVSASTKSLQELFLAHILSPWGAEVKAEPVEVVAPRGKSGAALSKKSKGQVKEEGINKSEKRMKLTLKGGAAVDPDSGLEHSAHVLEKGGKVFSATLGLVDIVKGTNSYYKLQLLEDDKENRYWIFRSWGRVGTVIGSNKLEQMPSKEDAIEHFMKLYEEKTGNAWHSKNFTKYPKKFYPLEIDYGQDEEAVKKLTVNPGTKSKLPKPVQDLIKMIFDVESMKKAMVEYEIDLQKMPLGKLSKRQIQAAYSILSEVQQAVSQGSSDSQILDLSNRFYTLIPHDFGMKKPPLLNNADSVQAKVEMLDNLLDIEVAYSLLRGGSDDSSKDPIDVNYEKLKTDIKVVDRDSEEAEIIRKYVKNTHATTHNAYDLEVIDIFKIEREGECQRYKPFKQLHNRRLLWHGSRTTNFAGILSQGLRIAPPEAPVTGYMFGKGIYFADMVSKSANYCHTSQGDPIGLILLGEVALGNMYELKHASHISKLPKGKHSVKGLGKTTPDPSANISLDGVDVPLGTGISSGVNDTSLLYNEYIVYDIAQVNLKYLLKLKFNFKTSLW

IC50, 0.501 to 5 µM:
O=c1[nH]c(CCCN2CCN(c3ccccc3)CC2)nc2c1CC1(CC2)CC1 [Compound 13, 2′-(3-(4-phenylpiperazin-1-yl)propyl)-7′,8′-dihydro-3′H-spiro[cyclopropane-1,6′-quinazolin]-4′(5′H)-one]
O=c1[nH]c(C2=C[C@H](N3CCN(c4cccc(Cl)c4)CC3)CC2)nc2c1CC1(CC2)CC1 [Compound 60, (R)-2′-(3-(4-(3-chlorophenyl)piperazin-1-yl)cyclopent-1-en-1-yl)-7′,8′-dihydro-3′H-spiro[cyclopropane-1,6′-quinazolin]-4′(5′H)-one]
Cc1csc(N2CCN([C@H]3C=C(c4nc5c(c(=O)[nH]4)CC4(CC5)CC4)CC3)CC2)n1 [Compound 102, (R)-2′-(3-(4-(4-methylthiazol-2-yl)piperazin-1-yl)cyclopent-1-en-1-yl)-7′,8′-dihydro-3′H-spiro[cyclopropane-1,6′-quinazolin]-4′(5′H)-one]
O=c1[nH]c([C@@H]2CC[C@H](N3CCN(c4ccc(Cl)cc4)CC3)C2)nc2c1CC1(CC2)CC1 [Compound 118, 2′-((1R,3S)-3-(4-(4-chlorophenyl)piperazin-1-yl)cyclopentyl)-7′,8′-dihydro-3′H-spiro[cyclopropane-1,6′-quinazolin]-4′(5′H)-one]
Cc1nc2ccc(N3CCN([C@H]4C=C(c5nc6c(c(=O)[nH]5)CC5(CC6)CC5)CC4)CC3)cc2s1 [Compound 81, (R)-2′-(3-(4-(2-methylbenzo[d]thiazol-6-yl)piperazin-1-yl)cyclopent-1-en-1-yl)-7′,8′-dihydro-3′H-spiro[cyclopropane-1,6′-quinazolin]-4′(5′H)-one]

IC50, 0.001 to 0.5 µM:
CNC(=O)c1ccc(N2CCN([C@H]3C=C(c4nc5c(c(=O)[nH]4)CC4(CC5)CC4)CC3)CC2)cc1C [Compound 98, (R)—N, 2-dimethyl-4-(4-(3-(4′-oxo-4′,5′,7′,8′-tetrahydro-3′H-spiro[cyclopropane-1,6′-quinazolin]-2′-yl)cyclopent-2-en-1-yl)piperazin-1-yl)benzamide]
O=c1[nH]c(C2=C[C@@H](N3CCN(c4ccc(Cl)cc4)CC3)CC2)nc2c1CCCC21CC1 [Compound 40, (S)-2′-(3-(4-(4-chlorophenyl)piperazin-1-yl)cyclopent-1-en-1-yl)-6′,7′-dihydro-3′H-spiro[cyclopropane-1,8′-quinazolin]-4′(5′H)-one]
O=c1[nH]c(C2=C[C@H](N3CC=C(c4ccc(Cl)cc4)CC3)CC2)nc2c1CC1(CC2)CC1 [Compound 46, (R)-2′-(3-(4-(4-chlorophenyl)-5,6-dihydropyridin-1(2H)-yl)cyclopent-1-en-1-yl)-7′,8′-dihydro-3′H-spiro[cyclopropane-1,6′-quinazolin]-4′(5′H)-one]
Cc1ccc(F)cc1N1CCN([C@H]2C=C(c3nc4c(c(=O)[nH]3)CC3(CC4)CC3)CC2)CC1 [Compound 123, (R)-2′-(3-(4-(5-fluoro-2-methylphenyl)piperazin-1-yl)cyclopent-1-en-1-yl)-7′,8′-dihydro-3′H-spiro[cyclopropane-1,6′-quinazolin]-4′(5′H)-one]
O=c1[nH]c(CCCN2CC=C(c3ccccc3)CC2)nc2c1CCCC21CC1 [Compound 3, 2′-(3-(4-phenyl-5,6-dihydropyridin-1(2H)-yl)propyl)-6′,7′-dihydro-3′H-spiro[cyclopropane-1,8′-quinazolin]-4′(5′H)-one]
O=c1[nH]c(C2=C[C@H](N3CCN(c4ccc(F)c(F)c4)CC3)CC2)nc2c1CC1(CC2)CC1 [Compound 62, (R)-2′-(3-(4-(3,4-difluorophenyl)piperazin-1-yl)cyclopent-1-en-1-yl)-7′,8′-dihydro-3′H-spiro[cyclopropane-1,6′-quinazolin]-4′(5′H)-one]
O=c1[nH]c(C2=C[C@H](N3CCN(c4ncc(Cl)cc4Cl)CC3)CC2)nc2c1CC1(CC2)CC1 [Compound 107, (R)-2′-(3-(4-(3,5-dichloropyridin-2-yl)piperazin-1-yl)cyclopent-1-en-1-yl)-7′,8′-dihydro-3′H-spiro[cyclopropane-1,6′-quinazolin]-4′(5′H)-one]
Cc1c(Cl)cccc1N1CCN([C@H]2C=C(c3nc4c(c(=O)[nH]3)CC3(CC4)CC3)CC2)CC1 [Compound 143, (R)-2′-(3-(4-(3-chloro-2-methylphenyl)piperazin-1-yl)cyclopent-1-en-1-yl)-7′,8′-dihydro-3′H-spiro[cyclopropane-1,6′-quinazolin]-4′(5′H)-one]
Cc1cc(N2CCN([C@H]3C=C(c4nc5c(c(=O)[nH]4)CC4(CC5)CC4)CC3)CC2)ncc1Cl [Compound 141, (R)-2′-(3-(4-(5-chloro-4-methylpyridin-2-yl)piperazin-1-yl)cyclopent-1-en-1-yl)-7′,8′-dihydro-3′H-spiro[cyclopropane-1,6′-quinazolin]-4′(5′H)-one]
O=c1[nH]c(C2=C[C@@H](N3CC=C(c4ccc(F)cc4)CC3)CC2)nc2c1CC1(CC2)CC1 [Compound 51, (S)-2′-(3-(4-(4-fluorophenyl)-5,6-dihydropyridin-1(2H)-yl)cyclopent-1-en-1-yl)-7′,8′-dihydro-3′H-spiro[cyclopropane-1,6′-quinazolin]-4′(5′H)-one]
O=c1[nH]c(C2=CC(N3CCN(c4ccc(Br)cc4)CC3)CC2)nc2c1CC1(CC2)CC1 (centres unmarked) [Compound 50, 2′-(3-(4-(4-bromophenyl)piperazin-1-yl)cyclopent-1-en-1-yl)-7′,8′-dihydro-3′H-spiro[cyclopropane-1,6′-quinazolin]-4′(5′H)-one]
CC1CN(c2ccc(F)cc2)CCN1CCCc1nc2c(c(=O)[nH]1)CC1(CC2)CC1 (centres unmarked) [Compound 27, 2′-(3-(4-(4-fluorophenyl)-2-methylpiperazin-1-yl)propyl)-7′,8′-dihydro-3′H-spiro[cyclopropane-1,6′-quinazolin]-4′(5′H)-one]
Cc1ccccc1N1CCN([C@H]2C=C(c3nc4c(c(=O)[nH]3)CC3(CC4)CC3)CC2)CC1 [Compound 90, (R)-2′-(3-(4-(o-tolyl)piperazin-1-yl)cyclopent-1-en-1-yl)-7′,8′-dihydro-3′H-spiro[cyclopropane-1,6′-quinazolin]-4′(5′H)-one]
COc1cc(N2CCN([C@H]3C=C(c4nc5c(c(=O)[nH]4)CC4(CC5)CC4)CC3)CC2)ccc1F [Compound 114, (R)-2′-(3-(4-(4-fluoro-3-methoxyphenyl)piperazin-1-yl)cyclopent-1-en-1-yl)-7′,8′-dihydro-3′H-spiro[cyclopropane-1,6′-quinazolin]-4′(5′H)-one]
CC(CCc1nc2c(c(=O)[nH]1)CC1(CC2)CC1)N1CCN(c2ccc(F)cc2)CC1 (centres unmarked) [Compound 21, 2′-(3-(4-(4-fluorophenyl)piperazin-1-yl)butyl)-7′,8′-dihydro-3′H-spiro[cyclopropane-1,6′-quinazolin]-4′(5′H)-one]
O=c1[nH]c(CCCN2CCN(c3ccc(Cl)cc3)CC2)nc2c1CC1(CC2)CC1 [Compound 6, 2′-(3-(4-(4-chlorophenyl)piperazin-1-yl)propyl)-7′,8′-dihydro-3′H-spiro[cyclopropane-1,6′-quinazolin]-4′(5′H)-one]
O=c1[nH]c(C2=CC(N3CCN(c4ccncc4)CC3)CC2)nc2c1CC1(CC2)CC1 (centres unmarked) [Compound 39, 2′-(3-(4-(pyridin-4-yl)piperazin-1-yl)cyclopent-1-en-1-yl)-7′,8′-dihydro-3′H-spiro[cyclopropane-1,6′-quinazolin]-4′(5′H)-one]
O=c1[nH]c(C2=C[C@H](N3CCN(c4ccccc4Cl)CC3)CC2)nc2c1CC1(CC2)CC1 [Compound 122, (R)-2′-(3-(4-(2-chlorophenyl)piperazin-1-yl)cyclopent-1-en-1-yl)-7′,8′-dihydro-3′H-spiro[cyclopropane-1,6′-quinazolin]-4′(5′H)-one]
CNC(=O)c1ccc(N2CCN([C@H]3C=C(c4nc5c(c(=O)[nH]4)CC4(CC5)CC4)CC3)CC2)cc1Cl [Compound 94, (R)-2-chloro-N-methyl-4-(4-(3-(4′-oxo-4′,5′,7′,8′-tetrahydro-3′H-spiro[cyclopropane-1,6′-quinazolin]-2′-yl)cyclopent-2-en-1-yl)piperazin-1-yl)benzamide]

IC50, 5 to 500 µM:
O=c1[nH]c(C2=C[C@@H](N3CCN(c4ccc(F)cc4)CC3)CC2)nc2c1CC1(CC2)CC1 [Compound 43, (S)-2′-(3-(4-(4-fluorophenyl)piperazin-1-yl)cyclopent-1-en-1-yl)-7′,8′-dihydro-3′H-spiro[cyclopropane-1,6′-quinazolin]-4′(5′H)-one]
O=c1[nH]c(C2=C[C@H](N3CCN(c4ncccn4)CC3)CC2)nc2c1CC1(CC2)CC1 [Compound 128, (R)-2′-(3-(4-(pyrimidin-2-yl)piperazin-1-yl)cyclopent-1-en-1-yl)-7′,8′-dihydro-3′H-spiro[cyclopropane-1,6′-quinazolin]-4′(5′H)-one]
O=c1[nH]c(CCCN2CC3CCC(C2)N3c2ccc(F)cc2)nc2c1CC1(CC2)CC1 [Compound 8, 2′-(3-(8-(4-fluorophenyl)-3,8-diazabicyclo[3.2.1]octan-3-yl)propyl)-7′,8′-dihydro-3′H-spiro[cyclopropane-1,6′-quinazolin]-4′(5′H)-one]
CCc1cnc(N2CCN([C@H]3C=C(c4nc5c(c(=O)[nH]4)CC4(CC5)CC4)CC3)CC2)nc1 [Compound 135, (R)-2′-(3-(4-(5-ethylpyrimidin-2-yl)piperazin-1-yl)cyclopent-1-en-1-yl)-7′,8′-dihydro-3′H-spiro[cyclopropane-1,6′-quinazolin]-4′(5′H)-one]
O=c1[nH]c(C2=C[C@H](N3CCN(c4ccc(Cl)c(Cl)c4)CC3)CC2)nc2c1CC1(CC2)CC1 [Compound 59, (R)-2′-(3-(4-(3,4-dichlorophenyl)piperazin-1-yl)cyclopent-1-en-1-yl)-7′,8′-dihydro-3′H-spiro[cyclopropane-1,6′-quinazolin]-4′(5′H)-one]
